Consider one compound from patent publication US10184115B2, “Mutated cellobiose dehydrogenase with increased substrate specificity” (DIRECTSENS GMBH, priority 2012, dated 2019).

The target in the assay is T1, Corynascus thermophilus cellobiose dehydrogenase (CDH), recombinant wild type, SEQ ID NO: 7 (Thermothelomyces fergusii, UniProt E7D6B9).
T1 sequence (E7D6B9 24-787): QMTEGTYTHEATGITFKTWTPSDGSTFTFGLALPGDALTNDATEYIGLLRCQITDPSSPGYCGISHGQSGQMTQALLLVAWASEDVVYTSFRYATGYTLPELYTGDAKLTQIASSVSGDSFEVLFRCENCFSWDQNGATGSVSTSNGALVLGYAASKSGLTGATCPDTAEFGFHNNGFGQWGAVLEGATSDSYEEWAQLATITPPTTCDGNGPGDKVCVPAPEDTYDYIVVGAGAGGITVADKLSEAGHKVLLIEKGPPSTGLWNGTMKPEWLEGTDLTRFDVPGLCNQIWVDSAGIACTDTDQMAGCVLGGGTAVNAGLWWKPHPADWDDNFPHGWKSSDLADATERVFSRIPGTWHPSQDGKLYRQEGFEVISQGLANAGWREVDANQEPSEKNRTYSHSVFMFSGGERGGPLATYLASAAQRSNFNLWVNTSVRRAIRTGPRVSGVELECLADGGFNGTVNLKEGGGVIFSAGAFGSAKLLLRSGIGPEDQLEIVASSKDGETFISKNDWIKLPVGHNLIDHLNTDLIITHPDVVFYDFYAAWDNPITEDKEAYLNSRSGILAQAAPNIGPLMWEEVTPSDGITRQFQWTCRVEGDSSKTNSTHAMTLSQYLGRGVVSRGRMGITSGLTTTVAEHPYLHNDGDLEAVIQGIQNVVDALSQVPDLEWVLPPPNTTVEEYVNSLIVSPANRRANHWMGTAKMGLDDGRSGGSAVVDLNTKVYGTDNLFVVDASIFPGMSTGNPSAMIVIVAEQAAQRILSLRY
Nature of the assay: Steady-state kinetics, DCIP assay: C. thermophilus CDH wt. The following applies: apparent, pH 5.5, 30° C. The protocol: Enzyme activity was assayed at 30° C. using either the DCIP (Karapetyan et al., 2005 Journal of Biotechnology 121: 34-48) or cytochrome c (Canevascini et al., 1991, European Journal of Biochemistry 198: 43-52) as electron acceptor. […] Stock solutions of carbohydrates used for kinetic measurements were prepared in the respective buffer and allowed to stand overnight for mutarotation, while stock solutions of electron acceptors were prepared in water and immediately used. The reaction stoichiometry is 1 for the two-electron acceptor DCIP (1 mole of DCIP reduced per mole of carbohydrate oxidized), but 2 for the one-electron acceptor cytochrome c. Kinetic constants were calculated by fitting the observed data to the Henri-Michaelis-Menten equation or to the adapted model for substrate inhibition using nonlinear least-squares regression and the program SigmaPlot (Systat Software, San Jose, Calif., USA). […]
Recombinant wild-type CDH as well as variants were produced in 1 L baffled flasks. […] Increase in activity was monitored using the DCIP and the cytochrome c enzyme assays. […]
The sample was loaded on a 20 mL PHE Sepharose FF column (HR26/20) equilibrated with 50 mM Na-acetate buffer pH 5.5 containing 20% ammonium sulfate. […] Fractions were tested for CDH activity and pooled according to the highest Reinheitszahl (RZ, calculated from the absorbance ratio 420 nm/280 nm). […]

On to `OC[C@H]1OC(O)[C@H](O)[C@@H](O)[C@@H]1O` (some centres unmarked) [Glucose, glucose], for which the kcat worked out at 4.09 s⁻¹ and the kcat/KM is 170 M⁻¹ s⁻¹.

In general, kcat refers to the maximal rate divided by the concentration of active sites. As a reminder, the kcat/KM is the turnover number divided by the Michaelis constant.
